Experimental data reported in ChEMBL document CHEMBL4765279, “Discovery of a novel series of imidazo[1',2':1,6]pyrido[2,3-d]pyrimidin derivatives as potent cyclin-dependent kinase 4/6 inhibitors” (Eur J Med Chem, 2020).
pIC50: −log10 of the molar value.

Columns and labels:
[1] = target: CDK4/Cyclin D3 (Homo sapiens, UniProt P11802); assay: Inhibition of recombinant human full-length N-terminal GST-fused CDK4 (1 to 303 residues)/GST-tagged CyclinD3 (1 to 292 residues) expressed in baculovirus expression system using ULight-elF4E-binding protein 1 peptide as substrate measured after 30 mins by LANCE assay
Sequence of CDK4/Cyclin D3 (P11802 whole entry, the tested form may be a part): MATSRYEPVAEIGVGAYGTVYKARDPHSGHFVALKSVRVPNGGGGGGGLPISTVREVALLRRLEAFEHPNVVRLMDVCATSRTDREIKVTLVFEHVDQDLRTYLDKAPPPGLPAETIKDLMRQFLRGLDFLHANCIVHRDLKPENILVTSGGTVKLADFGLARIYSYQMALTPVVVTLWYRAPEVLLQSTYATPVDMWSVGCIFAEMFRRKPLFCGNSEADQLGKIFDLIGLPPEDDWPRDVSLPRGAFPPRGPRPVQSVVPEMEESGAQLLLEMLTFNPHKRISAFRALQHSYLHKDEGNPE
Sequence of CDK4/Cyclin D3 (P30281 whole entry, further chain, the tested form may be a part): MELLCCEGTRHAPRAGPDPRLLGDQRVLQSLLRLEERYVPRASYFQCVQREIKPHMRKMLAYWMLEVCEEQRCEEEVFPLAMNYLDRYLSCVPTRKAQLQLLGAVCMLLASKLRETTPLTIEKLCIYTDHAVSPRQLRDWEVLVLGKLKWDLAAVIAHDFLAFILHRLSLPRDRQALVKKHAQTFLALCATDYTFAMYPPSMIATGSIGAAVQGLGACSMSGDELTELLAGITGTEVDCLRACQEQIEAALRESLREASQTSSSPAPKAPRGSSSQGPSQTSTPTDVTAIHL

[2] = target: CDK6/Cyclin D3 (Homo sapiens, UniProt Q00534); assay: Inhibition of human full-length N-terminal GST tagged CDK6 (1 to 326 residues)/GST-tagged cyclinD3 (1 to 292 residues) expressed in baculovirus expression system using ULight-elF4E-binding protein 1 peptide as substrate measured after 30 mins by LANCE assay
Sequence of CDK6/Cyclin D3 (Q00534 whole entry, looked up, the tested form may be a part): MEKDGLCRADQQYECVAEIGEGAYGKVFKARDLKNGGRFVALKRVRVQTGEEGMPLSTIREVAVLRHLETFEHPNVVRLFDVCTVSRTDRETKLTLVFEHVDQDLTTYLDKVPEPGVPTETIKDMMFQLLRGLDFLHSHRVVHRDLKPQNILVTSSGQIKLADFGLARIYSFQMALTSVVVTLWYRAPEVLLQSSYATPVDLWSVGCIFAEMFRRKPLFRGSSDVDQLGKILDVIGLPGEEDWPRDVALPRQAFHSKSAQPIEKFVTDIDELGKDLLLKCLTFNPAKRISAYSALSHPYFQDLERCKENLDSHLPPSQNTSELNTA

[3] = tested on: COLO 205; assay: Antiproliferative activity against human COLO 205 cells assessed as cell growth inhibition measured after 4 to 6 days by celltiter-glo luminescent cell viability assay; type: functional, cell-based
[4] = tested on: U-87 MG; assay: Antiproliferative activity against human U-87 MG cells assessed as cell growth inhibition measured after 4 to 6 days by celltiter-glo luminescent cell viability assay; type: functional, cell-based, U-87MG ATCC
[5] = tested on: COLO 205; assay: Cell cycle arrest in human COLO 205 cells assessed as accumulation at G0/G1 phase at 200 nM measured after 24 hrs by propidium iodide staining based flow cytometry relative to control; type: functional
[6] = tested on: MDA-MB-468; assay: Antiproliferative activity against human MDA-MB-468 cells assessed as cell growth inhibition measured after 4 to 6 days by celltiter-glo luminescent cell viability assay; type: functional, cell-based
[7] = Intrinsic clearance in human liver microsomes at 1 uM preincubated for 10 mins followed by NADPH addition and measured after 1 hr by LC-MS/MS analysis; type: ADME, Microsome; details: time 70 min, read-out: CLH
[8] = Intrinsic clearance in rat liver microsomes at 1 uM preincubated for 10 mins followed by NADPH addition and measured after 1 hr by LC-MS/MS analysis; type: ADME, Microsome; details: time 70 min, read-out: CLH
[9] = target: T1, CYP1A2 (Homo sapiens, UniProt P05177); assay: Inhibition of CYP1A2 in human liver microsomes at 10 uM measured after 20 mins in presence of NADPH by LC-MS/MS analysis relative to control; type: ADME
T1 sequence (P05177 whole entry): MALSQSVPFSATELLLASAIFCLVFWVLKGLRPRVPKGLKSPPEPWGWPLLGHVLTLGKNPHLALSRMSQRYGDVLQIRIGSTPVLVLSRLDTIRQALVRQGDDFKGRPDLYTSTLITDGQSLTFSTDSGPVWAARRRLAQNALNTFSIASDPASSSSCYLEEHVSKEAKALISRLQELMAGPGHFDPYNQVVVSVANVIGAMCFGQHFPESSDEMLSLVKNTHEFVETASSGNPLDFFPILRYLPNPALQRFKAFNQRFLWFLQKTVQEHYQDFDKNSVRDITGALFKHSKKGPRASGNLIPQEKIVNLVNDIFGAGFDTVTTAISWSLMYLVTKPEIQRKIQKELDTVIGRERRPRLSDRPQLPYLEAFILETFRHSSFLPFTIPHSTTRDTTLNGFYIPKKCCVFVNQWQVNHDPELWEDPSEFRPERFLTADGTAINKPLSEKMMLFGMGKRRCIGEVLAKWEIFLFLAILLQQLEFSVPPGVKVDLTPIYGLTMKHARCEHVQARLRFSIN

[10] = target: CYP2C9 (Homo sapiens, UniProt P11712); assay: Inhibition of CYP2C9 in human liver microsomes at 10 uM measured after 20 mins in presence of NADPH by LC-MS/MS analysis relative to control; type: ADME
Sequence of CYP2C9 (P11712 whole entry): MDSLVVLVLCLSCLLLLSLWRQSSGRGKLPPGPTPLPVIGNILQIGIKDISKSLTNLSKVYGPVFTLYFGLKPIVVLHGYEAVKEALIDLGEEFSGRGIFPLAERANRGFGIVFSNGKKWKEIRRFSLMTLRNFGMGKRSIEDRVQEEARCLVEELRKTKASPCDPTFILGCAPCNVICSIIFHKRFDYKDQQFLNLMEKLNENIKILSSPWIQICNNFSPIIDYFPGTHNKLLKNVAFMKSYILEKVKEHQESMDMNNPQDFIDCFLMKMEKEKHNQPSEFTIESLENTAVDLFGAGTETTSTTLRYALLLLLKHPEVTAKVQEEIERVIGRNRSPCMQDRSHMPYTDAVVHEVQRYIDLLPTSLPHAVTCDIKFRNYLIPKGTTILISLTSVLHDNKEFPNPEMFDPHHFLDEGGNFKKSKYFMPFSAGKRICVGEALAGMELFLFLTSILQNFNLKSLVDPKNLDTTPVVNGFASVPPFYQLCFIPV

[11] = target: CYP2C19 (Homo sapiens, UniProt P33261); assay: Inhibition of CYP2C19 in human liver microsomes at 10 uM measured after 20 mins in presence of NADPH by LC-MS/MS analysis relative to control; type: ADME
[12] = target: CYP2D6 (Homo sapiens, UniProt P10635); assay: Inhibition of CYP2D6 in human liver microsomes at 10 uM measured after 20 mins in presence of NADPH by LC-MS/MS analysis relative to control; type: ADME
Sequence of CYP2D6 (P10635 whole entry): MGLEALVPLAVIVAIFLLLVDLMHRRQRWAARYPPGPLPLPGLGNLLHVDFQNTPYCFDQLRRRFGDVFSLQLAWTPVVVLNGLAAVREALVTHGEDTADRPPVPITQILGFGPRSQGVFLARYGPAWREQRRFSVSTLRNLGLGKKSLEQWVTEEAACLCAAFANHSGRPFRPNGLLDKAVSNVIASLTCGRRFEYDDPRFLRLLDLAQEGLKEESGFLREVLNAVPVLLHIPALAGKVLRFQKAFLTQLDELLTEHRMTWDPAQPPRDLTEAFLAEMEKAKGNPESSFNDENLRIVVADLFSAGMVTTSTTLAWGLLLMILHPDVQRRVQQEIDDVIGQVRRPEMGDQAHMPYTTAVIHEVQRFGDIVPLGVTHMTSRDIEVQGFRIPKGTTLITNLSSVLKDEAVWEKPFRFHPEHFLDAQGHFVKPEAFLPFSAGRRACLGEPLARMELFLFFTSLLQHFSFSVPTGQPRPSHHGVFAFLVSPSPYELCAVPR

[13] = target: CYP3A4 (Homo sapiens, UniProt P08684); assay: Inhibition of CYP3A4 in human liver microsomes at 10 uM measured after 20 mins in presence of NADPH by LC-MS/MS analysis relative to control; type: ADME
[14] = target: T2, Cytochrome P450 1A2 (Homo sapiens, UniProt P05177); assay: Time-dependent inhibition of CYP1A2 in human liver microsomes at 10 uM in presence of NADPH by LC-MS/MS analysis; type: ADME
T2 sequence (P05177 whole entry): T1 sequence (P05177 whole entry)

[15] = target: Cytochrome P450 2C9 (Homo sapiens, UniProt P11712); assay: Time-dependent inhibition of CYP2C9 in human liver microsomes at 10 uM in presence of NADPH by LC-MS/MS analysis; type: ADME
Sequence of Cytochrome P450 2C9 (P11712 whole entry): as the sequence (P11712 whole entry) above

[16] = target: Cytochrome P450 2C19 (Homo sapiens, UniProt P33261); assay: Time-dependent inhibition of CYP2C19 in human liver microsomes at 10 uM in presence of NADPH by LC-MS/MS analysis; type: ADME
Sequence of Cytochrome P450 2C19 (P33261 whole entry): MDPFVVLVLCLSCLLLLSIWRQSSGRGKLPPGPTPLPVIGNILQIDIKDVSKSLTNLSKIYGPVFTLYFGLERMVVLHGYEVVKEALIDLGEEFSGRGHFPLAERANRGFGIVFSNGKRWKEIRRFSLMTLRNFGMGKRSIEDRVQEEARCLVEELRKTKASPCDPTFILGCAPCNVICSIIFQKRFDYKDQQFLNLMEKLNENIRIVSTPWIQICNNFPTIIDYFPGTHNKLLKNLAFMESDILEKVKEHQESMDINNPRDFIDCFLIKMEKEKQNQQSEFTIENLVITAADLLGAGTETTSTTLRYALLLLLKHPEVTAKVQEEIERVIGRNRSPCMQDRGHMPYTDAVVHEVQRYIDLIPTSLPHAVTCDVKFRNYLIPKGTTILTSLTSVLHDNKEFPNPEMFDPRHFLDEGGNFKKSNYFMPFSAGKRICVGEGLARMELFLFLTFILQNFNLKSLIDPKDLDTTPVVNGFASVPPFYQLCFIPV

[17] = target: Cytochrome P450 2D6 (Homo sapiens, UniProt P10635); assay: Time-dependent inhibition of CYP2D6 in human liver microsomes at 10 uM in presence of NADPH by LC-MS/MS analysis; type: ADME
Sequence of Cytochrome P450 2D6 (P10635 whole entry): as the sequence (P10635 whole entry) above

[18] = target: Cytochrome P450 3A4 (Homo sapiens, UniProt P08684); assay: Time-dependent inhibition of CYP3A4 in human liver microsomes at 10 uM in presence of NADPH by LC-MS/MS analysis; type: ADME
[19] = AUC (0 to t) in BALB/c mouse at 3 mg/kg, iv by LC-MS/MS analysis; type: ADME, organism-based; design: dose 3 mg/kg; details: in vivo
[20] = Half life in BALB/c mouse at 3 mg/kg, iv by LC-MS/MS analysis; type: ADME, organism-based; details: in vivo
[21] = Volume of distribution at steady state in BALB/c mouse at 3 mg/kg, iv by LC-MS/MS analysis; type: ADME, organism-based; details: in vivo, read-out: Vdss
[22] = Cmax in BALB/c mouse at 10 mg/kg, po by LC-MS/MS analysis; type: ADME, organism-based; design: route oral, dose 10 mg/kg; details: in vivo
[23] = AUC (0 to t) in BALB/c mouse at 10 mg/kg, po by LC-MS/MS analysis; type: ADME, organism-based; design: dose 10 mg/kg; details: in vivo
[24] = Half life in BALB/c mouse at 10 mg/kg, po by LC-MS/MS analysis; type: ADME, organism-based; details: in vivo
[25] = Oral bioavailability in BALB/c mouse at 10 mg/kg by LC-MS/MS analysis; type: ADME, organism-based; details: in vivo
[26] = AUC (0 to t) in Sprague-Dawley rat at 3 mg/kg, iv by LC-MS/MS analysis; type: ADME, organism-based; design: dose 3 mg/kg; details: in vivo
[27] = Half life in Sprague-Dawley rat at 3 mg/kg, iv by LC-MS/MS analysis; type: ADME, organism-based; details: in vivo
[28] = Volume of distribution at steady state in Sprague-Dawley rat at 3 mg/kg, iv by LC-MS/MS analysis; type: ADME, organism-based; details: in vivo, read-out: Vdss
[29] = Cmax in Sprague-Dawley rat at 6 mg/kg, po by LC-MS/MS analysis; type: ADME, organism-based; design: route oral, dose 6 mg/kg; details: in vivo
[30] = AUC (0 to t) in Sprague-Dawley rat at 6 mg/kg, po by LC-MS/MS analysis; type: ADME, organism-based; design: dose 6 mg/kg; details: in vivo
[31] = Half life in Sprague-Dawley rat at 6 mg/kg, po by LC-MS/MS analysis; type: ADME, organism-based; details: in vivo
[32] = Oral bioavailability in Sprague-Dawley rat at 6 mg/kg by LC-MS/MS analysis; type: ADME, organism-based; details: in vivo
[33] = tested on: U-87 MG; assay: Antitumor activity against human U-87 MG cells xenografted in BALB/c mouse assessed as tumor growth inhibition at 10 mg/kg, po qd for 16 days relative to control; type: functional, U-87MG ATCC; details: 384 h, time 16 day, read-out: TGI
[34] = tested on: U-87 MG; assay: Antitumor activity against human U-87 MG cells xenografted in BALB/c mouse assessed as tumor growth at 10 mg/kg, po qd for 16 days relative to control; type: functional, U-87MG ATCC; details: time 16 day
[35] = Toxicity in human U-87 MG cells xenografted BALB/c mouse assessed as body weight loss at 10 mg/kg, po qd for 16 days relative to control; type: organism-based; details: in vivo, 384 h, time 16 day
[36] = target: Cyclin-dependent kinase 7/ cyclin H (Homo sapiens, UniProt P50613); assay: Inhibition of CDK7/cyclin H (unknown origin); type: protein-complex assay
Sequence of Cyclin-dependent kinase 7/ cyclin H (P51946 whole entry): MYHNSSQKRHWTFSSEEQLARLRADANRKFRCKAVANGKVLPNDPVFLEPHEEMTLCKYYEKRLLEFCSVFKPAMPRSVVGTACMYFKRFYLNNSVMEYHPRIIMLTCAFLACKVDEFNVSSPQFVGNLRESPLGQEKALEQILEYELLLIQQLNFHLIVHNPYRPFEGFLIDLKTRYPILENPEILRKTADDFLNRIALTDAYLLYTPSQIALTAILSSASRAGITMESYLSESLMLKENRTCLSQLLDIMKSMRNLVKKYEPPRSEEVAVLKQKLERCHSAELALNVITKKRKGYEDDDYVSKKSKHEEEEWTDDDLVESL
Sequence of Cyclin-dependent kinase 7/ cyclin H (P50613 whole entry): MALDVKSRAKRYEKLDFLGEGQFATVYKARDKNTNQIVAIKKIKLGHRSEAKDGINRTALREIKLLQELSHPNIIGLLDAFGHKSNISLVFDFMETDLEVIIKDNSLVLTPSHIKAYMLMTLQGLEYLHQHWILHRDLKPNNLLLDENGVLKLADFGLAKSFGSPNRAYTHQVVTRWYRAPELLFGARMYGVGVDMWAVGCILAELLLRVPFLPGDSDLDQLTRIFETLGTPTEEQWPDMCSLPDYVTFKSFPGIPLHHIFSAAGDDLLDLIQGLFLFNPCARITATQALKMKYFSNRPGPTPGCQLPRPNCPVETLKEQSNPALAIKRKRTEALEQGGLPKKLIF

[37] = target: CDK9/cyclin T1 (Homo sapiens, UniProt P50750)
Sequence of CDK9/cyclin T1 (O60563 whole entry): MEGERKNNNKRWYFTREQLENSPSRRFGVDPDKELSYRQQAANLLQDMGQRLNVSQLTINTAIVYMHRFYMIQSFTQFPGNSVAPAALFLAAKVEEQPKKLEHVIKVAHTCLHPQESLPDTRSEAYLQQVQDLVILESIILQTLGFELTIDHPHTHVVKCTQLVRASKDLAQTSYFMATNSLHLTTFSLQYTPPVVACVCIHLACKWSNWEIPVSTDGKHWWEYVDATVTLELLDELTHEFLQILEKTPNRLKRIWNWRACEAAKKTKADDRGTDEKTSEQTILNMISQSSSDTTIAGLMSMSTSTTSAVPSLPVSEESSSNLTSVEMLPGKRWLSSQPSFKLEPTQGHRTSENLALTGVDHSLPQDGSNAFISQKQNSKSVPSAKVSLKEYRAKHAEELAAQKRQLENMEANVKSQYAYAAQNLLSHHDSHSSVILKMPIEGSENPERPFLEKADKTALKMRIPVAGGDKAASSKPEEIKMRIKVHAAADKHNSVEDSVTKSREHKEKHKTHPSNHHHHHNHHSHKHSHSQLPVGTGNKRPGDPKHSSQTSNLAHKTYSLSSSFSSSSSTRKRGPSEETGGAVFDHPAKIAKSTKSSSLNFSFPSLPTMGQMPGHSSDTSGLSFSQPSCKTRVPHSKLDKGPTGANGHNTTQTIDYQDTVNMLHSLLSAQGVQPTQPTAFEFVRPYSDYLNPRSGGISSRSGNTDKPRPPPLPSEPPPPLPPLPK
Sequence of CDK9/cyclin T1 (P50750 whole entry): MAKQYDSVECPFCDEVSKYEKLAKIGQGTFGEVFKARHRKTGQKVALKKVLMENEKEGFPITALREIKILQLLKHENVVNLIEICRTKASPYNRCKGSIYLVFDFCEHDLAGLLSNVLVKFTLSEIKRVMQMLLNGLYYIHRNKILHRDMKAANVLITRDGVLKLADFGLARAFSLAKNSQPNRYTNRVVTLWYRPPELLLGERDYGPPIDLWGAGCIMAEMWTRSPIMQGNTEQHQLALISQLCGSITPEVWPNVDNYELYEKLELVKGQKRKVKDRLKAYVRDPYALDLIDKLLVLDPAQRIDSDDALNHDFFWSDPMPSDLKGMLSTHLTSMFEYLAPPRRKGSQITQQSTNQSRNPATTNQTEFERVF
Description: Inhibition of CDK9/cyclin T1 (unknown origin)

[38] = target: Cyclin-dependent kinase 1/cyclin B1 (Homo sapiens, UniProt P06493)
Description: Inhibition of CDK1/cyclin B (unknown origin)

[39] = target: CDK2/Cyclin A2 (Homo sapiens, UniProt P24941)
Description: Inhibition of CDK2/cyclin A2 (unknown origin)

CC(=O)c1c(C)c2cnc(Nc3ccc(N4CCNCC4)cc3)nc2n2cc(C3CCCC3)nc12
pIC50 [1]: 8.33 | pIC50 [2]: 8.23 | pIC50 [3]: 7.13 | pIC50 [4]: 7.19

CC(=O)c1c(C)c2cnc(Nc3ccc(N4CCNCC4)cc3)nc2n2cc(C(C)(C)C)nc12
Activity [5]: 95.4% | pIC50 [1]: 8.57 | pIC50 [2]: 8.32 | pIC50 [3]: 6.59 | pIC50 [4]: 7.31 | pIC50 [6]: 6.01 | microsomal CLint at 1 µM [7]: 6 µL/min/mg | microsomal CLint at 1 µM [8]: 6 µL/min/mg | inhibition at […], 10 µM [9]: 17% | inhibition at […], 10 µM [10]: 12% | inhibition at […], 10 µM [11]: 19% | inhibition at […], 10 µM [12]: 7% | inhibition at […], 10 µM [13]: 18% | TDI [14]: Active | TDI [15]: Not Active | TDI [16]: Not Active | TDI [17]: Not Active | TDI [18]: Not Active | AUCt [19]: 440 ng·h/mL | half-life [20]: 4.64 h | Vd [21]: 33.7 L/kg | Cmax [22]: 570 ng/mL | AUC(0-t) [23]: 775 ng·h/mL | half-life [24]: 3.68 h | bioavailability [25]: 53.1% | AUCt [26]: 1334 ng·h/mL | half-life [27]: 5.57 h | Vd [28]: 35.7 L/kg | Cmax [29]: 170 ng/mL | AUC(0-t) [30]: 1780 ng·h/mL | half-life [31]: 4.44 h | bioavailability [32]: 66.9% | inhibition in vivo at 10 mg/kg [33]: 70% | T/C [34]: 37% | Activity [35]: < 20% | pIC50 [36]: 6.69 | pIC50 [37]: 6.66 | pIC50 [38]: 5.68 | pIC50 [39]: 7.22

Cc1cn2c(n1)c(C#N)c(C)c1cnc(Nc3ccccc3)nc12
pIC50 [1]: 7.00 | pIC50 [2]: 6.95

CC(=O)c1c(C)c2cnc(Nc3ccc4c(n3)CCN(CCN(C)C)C4)nc2n2cc(C(C)C)nc12
pIC50 [1]: 8.38 | pIC50 [2]: 8.29 | pIC50 [3]: 6.49 | pIC50 [4]: 6.60

CC(=O)c1c(C)c2cnc(Nc3ccc(N4CCNCC4)cc3)nc2n2cc(C(=O)N3CCCC3)nc12
pIC50 [1]: 7.23 | pIC50 [2]: 6.82 | pIC50 [4]: < 5.00

CC(=O)c1c(C)c2cnc(Nc3ccc(N4CCNCC4)cc3)nc2n2cc(C)nc12
pIC50 [1]: 8.44 | pIC50 [2]: 7.99 | pIC50 [3]: 6.23 | pIC50 [4]: 5.90

CCN1CCN(Cc2ccc(Nc3ncc(F)c(-c4cc(F)c5nc(C)n(C(C)C)c5c4)n3)nc2)CC1 [ABEMACICLIB]
Activity [5]: 95.3% | pIC50 [6]: 5.94

Cc1cn2c(n1)c(C#N)c(C)c1cnc(Nc3ccc(Br)cc3)nc12
pIC50 [1]: < 5.48 | pIC50 [2]: 6.03

Cc1cn2c(n1)c(C#N)c(C)c1cnc(Nc3ccc(N4CCOCC4)cc3)nc12
pIC50 [1]: 6.91 | pIC50 [2]: 6.96

CC(=O)c1c(C)c2cnc(Nc3ccc4c(n3)CCNC4)nc2n2cc(C(C)C)nc12
pIC50 [1]: 8.00 | pIC50 [2]: 7.64 | pIC50 [3]: 5.24 | pIC50 [4]: 5.43

CCOC(=O)c1cn2c(n1)c(C(C)=O)c(C)c1cnc(Nc3ccc(N4CCNCC4)cc3)nc12
pIC50 [1]: 7.65 | pIC50 [2]: 7.06 | pIC50 [3]: 5.55 | pIC50 [4]: < 5.00

CC(=O)c1c(C)c2cnc(Nc3ccc(N4CCC5(CCNC5)C4)cn3)nc2n2cc(C(C)C)nc12 (stereo not drawn)
pIC50 [1]: 8.40 | pIC50 [2]: 8.42 | pIC50 [3]: 5.89 | pIC50 [4]: 6.14

CNCCN1CCc2nc(Nc3ncc4c(C)c(C(C)=O)c5nc(C(C)C)cn5c4n3)ccc2C1
pIC50 [1]: 8.57 | pIC50 [2]: 8.15 | pIC50 [3]: 6.19 | pIC50 [4]: 6.73
